Results on one compound are retold here after patent publication US8735323B2, “Fungicide N-5-membered fused heteroaryl-methylene-N-cycloalkyl-carboxamide derivatives” (Bayer Cropscience AG, priority 2007, dated 2014).

SMILES strings stand for the structures.

The data set in a line: logP determination by HPLC on reversed-phase column (C 18), EEC Directive 79/831 Annex V.A8. In kind it is physicochemical. As to conditions: C 18 reversed-phase, 40° C., 0.1% aqueous formic acid and acetonitrile gradient. Here is the method:
In the following table, the logP values were determined in accordance with EEC Directive 79/831 Annex V.A8 by HPLC (High Performance Liquid Chromatography) on a reversed-phase column (C 18), using the method described below: Temperature: 40° C.; Mobile phases: 0.1% aqueous formic acid and acetonitrile; linear gradient from 10% acetonitrile to 90% acetonitrile. Calibration was carried out using unbranched alkan-2-ones (comprising 3 to 16 carbon atoms) with known logP values (determination of the logP values by the retention times using linear interpolation between two successive alkanones).

What is called LogP is a log measure of how a compound divides between an organic and an aqueous phase. The low end stands for a more hydrophilic compound, the high end for a more lipophilic compound. Consider `CCc1nn(C)c(F)c1C(=O)N(Cc1cn(-c2ccccc2)c2ccccc12)C1CC1` [Compound 29], for which the LogP was 3.89.
